# In patent US11344571B2, “NO containing compositions” (University Court of the University of St. Andrews, priority 2015, dated 2022):
# Structures can show the parent of a compound that is named as a salt.
# Key:
# [1] = NO release triggered by constant flow of humid nitrogen gas (11% RH), chemiluminescence nitric oxide analyser; type: physicochemical; conditions: humid nitrogen 11% RH; for total nitric oxide released: in 19 hr
# Excerpt: The release of NO from the sample was first triggered by passing a constant flow of humid nitrogen gas (11% RH) over it. The amount of NO released over time was detected using a Sievers NOA 280i chemiluminescence nitric oxide analyser until the emission of NO reached a level lower than 20 ppb.
# [2] = NO release triggered by UV light (300-400 nm), chemiluminescence analysis
# Procedure: After the NO release was completed the sample was kept on the bench at room temperature, exposed to air and humidity for over 48 hr.
# The release of NO over time was recorded using the same analyser described above.
# [3] = Gravimetric NO adsorption/desorption isotherms at 298K; type: physicochemical
# Procedure: The nitric oxide adsorption/desorption profiles for two further chlorhexidine diacetate samples (25 mg) were collected using a bespoke gravimetric adsorption system. Each sample was exposed to high vacuum at a pressure of 1×10^−4 mbar overnight until no further mass loss was observed. The samples were cooled to 298K using a water bath (temperature accuracy of 0.02K).
# For one sample, shown in the outer plot of FIGS. 2A-2B, NO was introduced in increasing increments. After each dose of NO, the mass of the sample was allowed to stabilise (indicating completion of adsorption) before the next addition was made. This process was continued until the introduced pressure of NO was equal to atmospheric pressure. The second sample was exposed to one atmosphere of NO in a single step, and its mass allowed to equilibrate. Data is shown in the inner plot of FIGS. 2A-2B. The desorption profiles of both samples, shown in FIGS. 2A-2B, were measured by reducing the pressure in increments to a final value of 2×10^−2 mbar.
# [4] = NO release from NO-loaded sample submersed in deionized water, chemiluminescence analysis; type: physicochemical
# Procedure: The NO-loaded sample was submersed under 5 ml of deionized water in a sealed chamber connected to an NO analyser. A constant flow of nitrogen was bubbled through the suspension while measuring the concentration of NO present in the chamber atmosphere.
# The release of NO from the sample triggered by the water was measured in ppm and ppb over time until the level of NO dropped below 20 ppb. The initial burst release of NO reached 40 ppm. The sample released up to 0.035 mmol/g of nitric oxide in 7 hrs (FIG. 5A).
structure (smiles),measurement,setting,value
N=C(NCCCCCCNC(=N)NC(=N)Nc1ccc(Cl)cc1)NC(=N)Nc1ccc(Cl)cc1 [chlorhexidine dihydrochloride],duration of initial burst release of NO on humidity,[1],a couple of minutes
same,UV-triggered burst of NO (peak),[2]; after 2 days on bench in humid air,up to 150 ppb
same,NO level to which UV-triggered burst dropped,"[2]; over 1 hr, after 2 days in humid air",75 ppb
N=C(NCCCCCCNC(=N)NC(=N)Nc1ccc(Cl)cc1)NC(=N)Nc1ccc(Cl)cc1 [chlorhexidine diacetate],"maximum NO adsorbed, molecules of NO per molecule of chlorhexidine",[3]; NO pressure up to atmospheric,0.55 molecules of NO per molecule of chlorhexidine
same,maximum NO adsorbed,"[3]; NO pressure up to atmospheric, gravimetric",~0.9 mmole of NO per gram
same,"level of stored NO after reapplication of vacuum, molecules per molecule of chlorhexidine",[3]; desorption to 2x10^-2 mbar,circa 0.25 molecules per molecule of chlorhexidine
same,level of stored NO after reapplication of vacuum,"[3]; desorption to 2x10^-2 mbar, both samples",~0.4 mmole per gram
same,initial burst of release of NO (peak),[1],512 PPM
same,total NO release,[1]; in 18 hrs,0.03 mmol/g
same,total nitric oxide released,[1],up to 0.042 mmol/g
same,initial burst release of NO (peak),"[4]; 100 mg under 5 ml deionized water, nitrogen bubbled",40 ppm
same,total nitric oxide released,"[4]; in water, in 7 hrs",up to 0.035 mmol/g
same,UV-triggered immediate burst of NO release,"[2]; burst from 30 ppb, after over 48 hr on bench in air and humidity",105 ppb
same,maximum NO on continuous UV exposure,"[2]; continuous exposure about 5 mins, after over 48 hr storage in air",around 120 ppb
same,NO release level sustained under continuous UV exposure,[2]; for more than 4 hrs,over 70 ppb
same,maximum NO on continuous UV exposure,"[2]; sample in water, immediately after water-triggered release, about 10 minutes",around 1000 ppb
NS(=O)(=O)c1cc(C(=O)O)c(NCc2ccco2)cc1Cl [furosemide],initial burst of release of NO (peak),[1],512 ppm
same,total nitric oxide released,[1],up to 0.042 mmol/g
O=C(O)c1cn(C2CC2)c2cc(N3CCNCC3)c(F)cc2c1=O [ciprofloxacin],duration of initial burst release of NO on humidity,[1],a couple of minutes
